# From PubChem BioAssay (NCI)
#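 Each compound was tested at five concentrations against cells in 96-well plates for 48 hours. GI50 marks 50% less growth. TGI denotes the concentration required for complete inhibition of growth.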
# Tests used:
# Assay in all cases: NCI anticancer screen, dose series, 48 h
# [1] = tested on: LOX IMVI melanoma
# [2] = tested on: 786-0 renal
# [3] = tested on: SNB-19 CNS
# [4] = tested on: SN12C renal
# [5] = tested on: SK-OV-3 ovarian
# [6] = tested on: MCF7 breast
# [7] = tested on: HCT-15 colon
# [8] = tested on: NCI-H23 lung
# [9] = tested on: CCRF-CEM leukemia
# [10] = tested on: EKVX NSCLC
structure (smiles),measurement,setting,value
CSc1nc(SC)c2c(C)cn(COCCOC(=O)c3ccccc3)c2n1,TGI,[1],> 100 µM
same,TGI,[2],> 100 µM
same,TGI,[3],> 100 µM
same,TGI,[4],> 100 µM
same,TGI,[5],> 100 µM
same,TGI,[6],> 100 µM
same,TGI,[7],> 100 µM
same,TGI,[8],> 100 µM
same,TGI,[9],> 100 µM
same,TGI,[10],> 100 µM
CC1=C(C(=O)Nc2ccc(Cl)c(Cl)c2)C(c2cccc(Cl)c2)NC(=S)N1 (centres undefined),GI50,[1],12.8 µM
same,TGI,[1],> 50 µM
same,GI50,[2],8.79 µM
same,TGI,[2],18.3 µM
same,GI50,[3],10.5 µM
same,TGI,[3],24.9 µM
same,GI50,[4],8.4 µM
same,TGI,[4],18.3 µM
same,GI50,[5],15.2 µM
same,TGI,[5],33 µM
same,GI50,[6],> 50 µM
same,TGI,[6],> 50 µM
same,GI50,[7],15.1 µM
same,TGI,[7],> 50 µM
same,GI50,[8],9.79 µM
same,TGI,[8],20.9 µM
same,GI50,[9],30.5 µM
same,TGI,[9],> 50 µM
same,GI50,[10],12.2 µM
same,TGI,[10],28.8 µM
Cn1c(I)c(C#C[Si](C)(C)C)c(=O)[nH]c1=O,GI50,[1],2.09 µM
same,TGI,[1],4 µM
same,GI50,[2],16.4 µM
same,TGI,[2],30.4 µM
same,GI50,[3],16 µM
same,TGI,[3],30.1 µM
same,GI50,[4],6.66 µM
same,TGI,[4],20.5 µM
same,GI50,[5],17.2 µM
same,TGI,[5],30.9 µM
same,GI50,[6],6.2 µM
same,TGI,[6],21.5 µM
same,GI50,[7],1.83 µM
same,TGI,[7],3.64 µM
same,GI50,[8],4.25 µM
same,TGI,[8],17.3 µM
same,GI50,[9],1.74 µM
same,TGI,[9],3.65 µM
same,GI50,[10],10.9 µM
same,TGI,[10],24.8 µM
COc1ccc(-c2c(-c3ccc(C#N)c(F)c3)nc(N3CCC(N)CC3)n(C)c2=O)cc1F,GI50,[1],13.1 µM
same,TGI,[1],26 µM
same,GI50,[2],11.7 µM
same,TGI,[2],24.7 µM
same,GI50,[3],31.6 µM
same,TGI,[3],> 100 µM
same,GI50,[4],19.3 µM
same,TGI,[4],79.3 µM
same,GI50,[5],15.8 µM
same,TGI,[5],45.8 µM
same,GI50,[6],14.4 µM
same,TGI,[6],34 µM
same,GI50,[7],21.6 µM
same,TGI,[7],99.2 µM
same,GI50,[8],19.6 µM
same,TGI,[8],91.6 µM
same,GI50,[9],17.6 µM
same,TGI,[9],53 µM
same,GI50,[10],15.5 µM
same,TGI,[10],52.8 µM
O=C1Cc2cc(CCN3CCNCC3)c(Cl)cc2N1,GI50,[1],> 100 µM
same,TGI,[1],> 100 µM
same,GI50,[2],> 100 µM
same,TGI,[2],> 100 µM
same,GI50,[3],23.7 µM
same,TGI,[3],> 100 µM
same,GI50,[4],6 µM
same,TGI,[4],> 100 µM
same,GI50,[5],> 100 µM
same,TGI,[5],> 100 µM
same,GI50,[6],3.65 µM
same,TGI,[6],> 100 µM
same,GI50,[7],6.23 µM
same,TGI,[7],> 100 µM
same,GI50,[8],46.4 µM
same,TGI,[8],> 100 µM
same,GI50,[9],2.98 µM
same,TGI,[9],> 100 µM
same,GI50,[10],0.358 µM
same,TGI,[10],> 100 µM
COc1ccc(/C=C/c2ccnc3ccccc23)cc1OC,TGI,[1],21.6 µM
same,TGI,[2],> 100 µM
same,TGI,[3],31.2 µM
same,TGI,[4],62.1 µM
same,TGI,[5],92.8 µM
same,TGI,[6],21.6 µM
same,TGI,[7],30.4 µM
same,TGI,[8],45.5 µM
same,TGI,[9],31 µM
same,TGI,[10],27.9 µM
C(=N\Nc1ccc2ccccc2n1)/c1ccccn1,GI50,[1],0.422 µM
same,TGI,[1],13.8 µM
same,GI50,[2],0.317 µM
same,GI50,[3],0.921 µM
same,TGI,[3],> 100 µM
same,GI50,[4],0.483 µM
same,TGI,[4],> 100 µM
same,GI50,[5],0.537 µM
same,TGI,[5],> 40.5 µM
same,GI50,[6],0.44 µM
same,TGI,[6],> 100 µM
same,GI50,[7],0.377 µM
same,TGI,[7],> 100 µM
same,GI50,[8],0.857 µM
same,TGI,[8],> 100 µM
same,GI50,[9],0.371 µM
same,TGI,[9],> 100 µM
same,GI50,[10],0.37 µM
same,TGI,[10],> 32.9 µM
